Structures are written as SMILES. Activity calls are given as the source filed them. The calls are words filed in the database; no cut-off is given here.

Consider 12 compounds from ChEMBL document CHEMBL1153474, “Novel tricyclic antagonists of the prostaglandin D2 receptor DP2 with efficacy in a murine model of allergic rhinitis” (Bioorg Med Chem Lett, 2009).

The target of one data set is Prostacyclin receptor (Homo sapiens, UniProt P43119). Kind of data set: Displacement of [3H]iloprost from human prostacyclin receptor expressed in human 293 cell membrane. Type of data set: cell membranes.
Data set [1] deals with T1, Cytochrome P450 3A4 (Homo sapiens, UniProt P08684). Kind of data set: Induction of CYP3A4 activity in cryopreserved human hepatocytes at 10 uM using midazolam as substrate after 2 days relative to rifampicin. To be noted: 48 h.
The target in another data set is Cytochrome P450 2D6 (Homo sapiens, UniProt P10635). Kind of data set: Inhibition of human CYP2D6. Type of data set: ADME.
The next data set relates to Blood. The experiment in a line: Inhibition of eosinophil […] in human whole blood assessed as change in morphology after 4 mins using flow cytometry by leukocyte shape change assay. Type of data set: functional, tissue-based.
Data set [2] addresses T2, Prostaglandin D2 receptor (Homo sapiens, UniProt Q13258).
T2 sequence (Q13258 whole entry): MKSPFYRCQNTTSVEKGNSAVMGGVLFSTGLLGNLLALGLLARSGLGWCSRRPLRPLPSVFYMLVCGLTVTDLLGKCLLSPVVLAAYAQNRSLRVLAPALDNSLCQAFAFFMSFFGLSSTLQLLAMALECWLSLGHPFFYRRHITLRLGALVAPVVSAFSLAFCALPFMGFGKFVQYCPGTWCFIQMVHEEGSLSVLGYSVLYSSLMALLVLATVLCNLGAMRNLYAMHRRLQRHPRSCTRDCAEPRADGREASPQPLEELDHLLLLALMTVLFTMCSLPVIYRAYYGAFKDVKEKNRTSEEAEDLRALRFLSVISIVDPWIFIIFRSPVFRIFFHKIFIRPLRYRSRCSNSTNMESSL
Kind of data set: Displacement of [3H]PGD2 from […] in human platelet membrane. Type of data set: cell membranes. In general terms: Displacement assays read how much labelled ligand stays bound in the presence of the test substance.

The next data set deals with T3, Thromboxane A2 receptor (Homo sapiens, UniProt P21731).
T3 sequence (P21731 whole entry): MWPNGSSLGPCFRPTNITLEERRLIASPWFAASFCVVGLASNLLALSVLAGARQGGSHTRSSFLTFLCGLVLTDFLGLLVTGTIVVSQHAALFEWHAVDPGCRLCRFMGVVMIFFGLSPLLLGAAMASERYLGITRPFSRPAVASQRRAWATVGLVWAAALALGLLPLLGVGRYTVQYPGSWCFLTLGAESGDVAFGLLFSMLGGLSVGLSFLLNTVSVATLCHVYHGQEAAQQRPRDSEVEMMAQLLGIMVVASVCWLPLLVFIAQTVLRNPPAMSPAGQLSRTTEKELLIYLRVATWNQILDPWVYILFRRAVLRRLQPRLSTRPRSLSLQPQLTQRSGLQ
Kind of data set: Displacement of [3H]SQ-29548 from thromboxane receptor in human platelet membrane. Type of data set: cell membranes.

In data set [3] the target is T4, Prostaglandin D2 receptor 2 (Homo sapiens, UniProt Q9Y5Y4).
T4 sequence (Q9Y5Y4 whole entry): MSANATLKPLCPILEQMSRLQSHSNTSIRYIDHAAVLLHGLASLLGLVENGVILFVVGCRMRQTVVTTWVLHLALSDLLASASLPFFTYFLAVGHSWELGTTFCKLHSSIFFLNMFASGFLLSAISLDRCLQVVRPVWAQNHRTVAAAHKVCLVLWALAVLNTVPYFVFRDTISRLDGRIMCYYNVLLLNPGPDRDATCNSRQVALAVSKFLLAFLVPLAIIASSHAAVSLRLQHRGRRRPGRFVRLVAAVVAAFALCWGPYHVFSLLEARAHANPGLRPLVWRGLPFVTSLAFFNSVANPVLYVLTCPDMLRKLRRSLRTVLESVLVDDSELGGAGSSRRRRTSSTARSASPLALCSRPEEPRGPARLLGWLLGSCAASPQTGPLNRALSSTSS
Kind of data set: Displacement of [3H]PGD2 from human prostaglandin D2 receptor.

The next data set has as its target Cytochrome P450 2C9 (Homo sapiens, UniProt P11712). Kind of data set: Inhibition of human CYP2C9. Type of data set: ADME.
For data set [4], the target named is T4, Prostaglandin D2 receptor 2. Kind of data set: Displacement of [3H]PGD2 from human prostaglandin D2 receptor in presence of human serum albumin.
Data set [5] deals with T1, Cytochrome P450 3A4. The experiment in a line: Inhibition of human CYP3A4. Type of data set: ADME.
Data set [6] concerns Mus musculus. The experiment in a line: Reduction of ovalbumin-induced increase in sneezes in BALB/c mouse at 10 mg/kg, po once daily for 3 days administered 20 days after ip challenge with ovalbumin followed by intranasal ovalbumin challenge 1 hr post drug dose measured after 8 mins. Type of data set: functional, organism-based. Also on record: dose 10 mg/kg.
The test system of data set [7] is Mus musculus. The experiment in a line: Reduction of ovalbumin-induced increase in nasal rubs in BALB/c mouse at 10 mg/kg, po once daily for 3 days administered 20 days after ip challenge with ovalbumin followed by intranasal ovalbumin challenge 1 hr post drug dose measured after 8 mins. On the set-up: dose 10 mg/kg. Type of data set: functional, organism-based.

The nature of data set [8]: Cmin in BALB/c mouse at 10 mg/kg, po administered once daily for 3 days measured after 8 hrs. Type of data set: ADME, organism-based. On the set-up: dose 10 mg/kg, route oral. Particulars: in vivo, read-out: Cmin.
The nature of data set [9]: Cmax in BALB/c mouse at 10 mg/kg, po administered once daily for 3 days measured after 1 hr. Type of data set: ADME, organism-based. To be noted: in vivo. On the set-up: dose 10 mg/kg, route oral.

Chain of Cytochrome P450 2D6 (P10635 whole entry): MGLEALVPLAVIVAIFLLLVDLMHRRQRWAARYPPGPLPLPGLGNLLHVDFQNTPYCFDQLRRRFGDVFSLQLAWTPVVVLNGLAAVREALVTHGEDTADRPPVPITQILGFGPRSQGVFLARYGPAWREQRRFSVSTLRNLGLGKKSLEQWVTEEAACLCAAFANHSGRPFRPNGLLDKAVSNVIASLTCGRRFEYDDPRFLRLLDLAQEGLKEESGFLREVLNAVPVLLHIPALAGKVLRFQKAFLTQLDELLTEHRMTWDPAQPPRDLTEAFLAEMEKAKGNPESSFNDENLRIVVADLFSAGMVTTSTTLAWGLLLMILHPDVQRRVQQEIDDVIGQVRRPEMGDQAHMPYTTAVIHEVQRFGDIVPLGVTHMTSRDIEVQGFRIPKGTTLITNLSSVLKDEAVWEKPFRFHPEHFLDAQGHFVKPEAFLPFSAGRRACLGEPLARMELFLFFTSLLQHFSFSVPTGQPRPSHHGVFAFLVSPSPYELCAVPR
Chain of Cytochrome P450 2C9 (P11712 whole entry): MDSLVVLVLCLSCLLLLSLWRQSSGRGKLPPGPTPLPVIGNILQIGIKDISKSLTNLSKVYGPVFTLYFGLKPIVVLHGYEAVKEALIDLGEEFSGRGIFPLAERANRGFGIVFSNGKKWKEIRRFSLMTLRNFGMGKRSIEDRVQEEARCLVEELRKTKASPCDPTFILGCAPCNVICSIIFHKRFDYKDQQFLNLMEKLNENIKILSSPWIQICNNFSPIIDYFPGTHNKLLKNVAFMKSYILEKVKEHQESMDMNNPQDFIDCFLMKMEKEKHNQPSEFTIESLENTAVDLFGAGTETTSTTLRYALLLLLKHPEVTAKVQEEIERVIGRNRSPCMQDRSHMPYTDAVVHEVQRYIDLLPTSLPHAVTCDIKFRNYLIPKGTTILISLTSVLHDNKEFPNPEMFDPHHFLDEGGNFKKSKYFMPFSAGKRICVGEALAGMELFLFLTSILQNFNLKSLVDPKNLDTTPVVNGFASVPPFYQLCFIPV
T1 sequence (P08684 whole entry): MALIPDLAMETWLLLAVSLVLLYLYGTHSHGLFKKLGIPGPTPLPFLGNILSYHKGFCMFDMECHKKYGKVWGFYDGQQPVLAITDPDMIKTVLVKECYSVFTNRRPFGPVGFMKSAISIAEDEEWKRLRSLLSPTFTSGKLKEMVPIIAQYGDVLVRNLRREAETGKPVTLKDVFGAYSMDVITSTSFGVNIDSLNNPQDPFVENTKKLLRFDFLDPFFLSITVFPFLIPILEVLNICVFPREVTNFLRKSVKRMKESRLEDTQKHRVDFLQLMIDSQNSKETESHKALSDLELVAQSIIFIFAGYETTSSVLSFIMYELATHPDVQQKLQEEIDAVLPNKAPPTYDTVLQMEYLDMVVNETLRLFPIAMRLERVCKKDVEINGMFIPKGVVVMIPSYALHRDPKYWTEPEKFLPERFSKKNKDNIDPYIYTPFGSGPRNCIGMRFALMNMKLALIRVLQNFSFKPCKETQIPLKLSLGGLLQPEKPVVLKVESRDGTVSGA
Chain of Prostacyclin receptor (P43119 whole entry): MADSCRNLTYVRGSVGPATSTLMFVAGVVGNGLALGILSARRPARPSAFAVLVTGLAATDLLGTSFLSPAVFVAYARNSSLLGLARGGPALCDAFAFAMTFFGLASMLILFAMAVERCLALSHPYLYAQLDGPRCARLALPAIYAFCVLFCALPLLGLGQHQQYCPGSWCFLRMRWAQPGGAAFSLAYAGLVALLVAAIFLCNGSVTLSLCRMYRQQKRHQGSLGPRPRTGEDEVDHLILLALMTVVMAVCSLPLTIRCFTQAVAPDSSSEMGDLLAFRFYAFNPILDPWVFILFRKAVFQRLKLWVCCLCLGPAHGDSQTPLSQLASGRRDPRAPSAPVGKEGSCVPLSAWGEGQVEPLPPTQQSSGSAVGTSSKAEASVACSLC

For orientation: IC50 means the concentration that gives 50% inhibition. For `CN(C)c1nc(Cc2ccc(NC(=O)c3ccc(C(F)(F)F)cc3)cc2)nc(N(C)C)c1CC(=O)O` [BI-671800], the half-inhibitory concentration (IC50) was greater than 100 µM at Prostacyclin receptor; greater than 30 µM on Cytochrome P450 2D6; 0.744 µM in the data set on Blood; 25.6 µM in data set [2]; 62.6 µM at Thromboxane A2 receptor; 0.042 µM in data set [3]. The IC50 at Cytochrome P450 2C9 was greater than 30 µM; in [4], 0.744 µM. In addition, the Activity at Cytochrome P450 3A4 [1] is listed as 0.4%.
On to `CN([C@@H]1CCc2c(CC(=O)O)c3ccccc3n2C1)S(=O)(=O)c1ccc(F)cc1` [MK-7246], for which the IC50 at Prostacyclin receptor was greater than 100 µM; on Cytochrome P450 2D6, greater than 30 µM; in the data set on Blood, 0.007 µM; in [2], 1 µM; at Thromboxane A2 receptor it was greater than 100 µM; in data set [3], 0.006 µM. Further, the figures for the IC50 (against Cytochrome P450 2C9; against Cytochrome P450 3A4 [5]; in data set [4]) were 5 µM, 7 µM and 0.02 µM, respectively. The same compound registered an Activity at Cytochrome P450 3A4 [1] of 0.7%.
For `Cc1c(Cc2ccc3ccccc3n2)c2cc(F)ccc2n1CC(=O)O` [TIMAPIPRANT], the IC50 at Prostacyclin receptor is 57.9 µM; against Cytochrome P450 2D6 it was greater than 30 µM; with Blood, 0.261 µM; in data set [2], 7.3 µM; at Thromboxane A2 receptor it was greater than 100 µM; against Cytochrome P450 2C9, greater than 30 µM. This compound returned an Activity at Cytochrome P450 3A4 [1] of 58.8%.
The Cmax is the peak of the concentration-time curve. Take `CN([C@@H]1CCc2c(c3ncccc3n2CC(=O)O)C1)S(=O)(=O)c1ccc(F)cc1`: the outcome in the data set on Mus musculus [6] and with Mus musculus [7] was Active. For the same compound, the 50% inhibitory concentration (IC50) was greater than 100 µM on Prostacyclin receptor; greater than 30 µM against Cytochrome P450 2D6; 0.001 µM in the data set on Blood; greater than 100 µM in [2]; greater than 100 µM on Thromboxane A2 receptor; 0.006 µM in data set [3]. The IC50 was greater than 30 µM against Cytochrome P450 2C9, greater than 30 µM on Cytochrome P450 3A4 [5] and 0.011 µM in [4]. Also, the Activity at Cytochrome P450 3A4 [1] came to 2.8%. In data set [8], the concentration at 8 h was determined as 120 nM. The compound further displayed a peak concentration (Cmax) in [9] of 770 nM.
For the compound `CN([C@@H]1CCc2c(c3ccncc3n2CC(=O)O)C1)S(=O)(=O)c1ccc(F)cc1`, the half-maximal inhibitory concentration (IC50) was greater than 100 µM at Prostacyclin receptor; greater than 30 µM against Cytochrome P450 2D6; 0.452 µM with Blood; greater than 100 µM in data set [2]; greater than 100 µM at Thromboxane A2 receptor; 0.86 µM in [3]. In addition, the IC50 on Cytochrome P450 2C9 is greater than 30 µM; on Cytochrome P450 3A4 [5], greater than 30 µM; in data set [4] it was 0.94 µM. In addition, the Activity on Cytochrome P450 3A4 [1] is reported as 0.4%.
Take `CN([C@@H]1CCc2c(c3ccccn3c2CC(=O)O)C1)S(=O)(=O)c1ccc(F)cc1`: the IC50 is greater than 100 µM on Prostacyclin receptor; greater than 30 µM at Cytochrome P450 2D6; 0.016 µM in the data set on Blood; 31 µM in [2]; 0.094 µM in [3]; 10 µM on Cytochrome P450 2C9. The 50% inhibitory concentration (IC50) at Cytochrome P450 3A4 [5] came to 11 µM; in data set [4] it was 0.061 µM.
With `CN([C@@H]1CCc2c(c3cccnc3n2CC(=O)O)C1)S(=O)(=O)c1ccc(F)cc1`, the IC50 on Prostacyclin receptor is greater than 100 µM; against Cytochrome P450 2D6 it was greater than 30 µM; in the data set with Blood, 3.1 µM; in [2] it was 9 µM; at Thromboxane A2 receptor, greater than 100 µM; in [3] it was 0.457 µM. Besides, the half-maximal inhibitory concentration (IC50) was greater than 30 µM on Cytochrome P450 2C9, greater than 30 µM on Cytochrome P450 3A4 [5] and 1.34 µM in data set [4]. This compound also had an Activity on Cytochrome P450 3A4 [1] of 2.8%.
For `CN([C@@H]1CCc2c(CC(=O)O)c3ccccn3c2C1)S(=O)(=O)c1ccc(F)cc1`, the IC50 at Prostacyclin receptor was greater than 100 µM; at Cytochrome P450 2D6, greater than 30 µM; in the data set with Blood, 0.006 µM; in data set [2] it was 4.4 µM; on Thromboxane A2 receptor, greater than 100 µM; in [3] it was 0.018 µM. Moreover, the half-inhibitory concentration (IC50) against Cytochrome P450 2C9 is 17 µM; at Cytochrome P450 3A4 [5] it was greater than 30 µM; in data set [4], 0.046 µM. This compound also had an Activity at Cytochrome P450 3A4 [1] of 0.9%.
On to `CN([C@@H]1CCc2c(c3nccnc3n2CC(=O)O)C1)S(=O)(=O)c1ccc(F)cc1`, for which the half-inhibitory concentration (IC50) is greater than 100 µM on Prostacyclin receptor; greater than 30 µM at Cytochrome P450 2D6; 0.14 µM with Blood; 37.8 µM in data set [2]; greater than 100 µM at Thromboxane A2 receptor; 0.096 µM in data set [3]. The results for the half-inhibitory concentration (IC50) (at Cytochrome P450 2C9; at Cytochrome P450 3A4 [5]; in data set [4]) were 15 µM, greater than 30 µM and 0.127 µM, respectively. For the same compound, the Activity at Cytochrome P450 3A4 [1] came out at 0.9%.
For `CN([C@@H]1CCc2c(CC(=O)O)c3ncccc3n2C1)S(=O)(=O)c1ccc(F)cc1`, the IC50 on Prostacyclin receptor was greater than 100 µM; on Cytochrome P450 2D6, greater than 30 µM; in the data set with Blood, 41.6 µM; in [2], 41.7 µM; on Thromboxane A2 receptor it was greater than 100 µM; in [3], 24.9 µM. The IC50 was greater than 30 µM on Cytochrome P450 2C9, greater than 30 µM at Cytochrome P450 3A4 [5] and 51 µM in [4]. At Cytochrome P450 3A4 [1], this compound gave an Activity of 0.9%.
Consider `CN([C@@H]1CCC2=C(C1)C1C=CC=CC1N2CC(=O)O)S(=O)(=O)c1ccc(F)cc1` (stereo partly specified), for which the half-maximal inhibitory concentration (IC50) at Prostacyclin receptor was greater than 100 µM; against Cytochrome P450 2D6, greater than 30 µM; in the data set on Blood it was 0.001 µM; in data set [2], 2.2 µM; at Thromboxane A2 receptor, greater than 100 µM; in data set [3] it was 0.001 µM. The IC50 at Cytochrome P450 2C9 is 18 µM; against Cytochrome P450 3A4 [5] it was greater than 30 µM; in data set [4] it was 0.004 µM. On Cytochrome P450 3A4 [1], the Activity was found to be 30.8%.
On to `O=C(O)CCn1c2c(c3ccccc31)C[C@H](NS(=O)(=O)c1ccc(F)cc1)CC2` [RAMATROBAN], for which the IC50 was greater than 100 µM on Prostacyclin receptor; greater than 30 µM on Cytochrome P450 2D6; 1.21 µM with Blood; 33.4 µM in data set [2]; 0.014 µM on Thromboxane A2 receptor; 0.311 µM in data set [3]. Further, the values for the half-maximal inhibitory concentration (IC50) (at Cytochrome P450 2C9; in data set [4]) were 15 µM and 0.754 µM, respectively.
